Source: ChEMBL document CHEMBL1201862, “PubChem BioAssay data set” (2004)
Calls of active or inactive are those of the source.

Experiments:
[1] = target: T1, Apoptotic protease-activating factor 1 (Homo sapiens, UniProt O14727); assay type: functional
T1 sequence (O14727 whole entry): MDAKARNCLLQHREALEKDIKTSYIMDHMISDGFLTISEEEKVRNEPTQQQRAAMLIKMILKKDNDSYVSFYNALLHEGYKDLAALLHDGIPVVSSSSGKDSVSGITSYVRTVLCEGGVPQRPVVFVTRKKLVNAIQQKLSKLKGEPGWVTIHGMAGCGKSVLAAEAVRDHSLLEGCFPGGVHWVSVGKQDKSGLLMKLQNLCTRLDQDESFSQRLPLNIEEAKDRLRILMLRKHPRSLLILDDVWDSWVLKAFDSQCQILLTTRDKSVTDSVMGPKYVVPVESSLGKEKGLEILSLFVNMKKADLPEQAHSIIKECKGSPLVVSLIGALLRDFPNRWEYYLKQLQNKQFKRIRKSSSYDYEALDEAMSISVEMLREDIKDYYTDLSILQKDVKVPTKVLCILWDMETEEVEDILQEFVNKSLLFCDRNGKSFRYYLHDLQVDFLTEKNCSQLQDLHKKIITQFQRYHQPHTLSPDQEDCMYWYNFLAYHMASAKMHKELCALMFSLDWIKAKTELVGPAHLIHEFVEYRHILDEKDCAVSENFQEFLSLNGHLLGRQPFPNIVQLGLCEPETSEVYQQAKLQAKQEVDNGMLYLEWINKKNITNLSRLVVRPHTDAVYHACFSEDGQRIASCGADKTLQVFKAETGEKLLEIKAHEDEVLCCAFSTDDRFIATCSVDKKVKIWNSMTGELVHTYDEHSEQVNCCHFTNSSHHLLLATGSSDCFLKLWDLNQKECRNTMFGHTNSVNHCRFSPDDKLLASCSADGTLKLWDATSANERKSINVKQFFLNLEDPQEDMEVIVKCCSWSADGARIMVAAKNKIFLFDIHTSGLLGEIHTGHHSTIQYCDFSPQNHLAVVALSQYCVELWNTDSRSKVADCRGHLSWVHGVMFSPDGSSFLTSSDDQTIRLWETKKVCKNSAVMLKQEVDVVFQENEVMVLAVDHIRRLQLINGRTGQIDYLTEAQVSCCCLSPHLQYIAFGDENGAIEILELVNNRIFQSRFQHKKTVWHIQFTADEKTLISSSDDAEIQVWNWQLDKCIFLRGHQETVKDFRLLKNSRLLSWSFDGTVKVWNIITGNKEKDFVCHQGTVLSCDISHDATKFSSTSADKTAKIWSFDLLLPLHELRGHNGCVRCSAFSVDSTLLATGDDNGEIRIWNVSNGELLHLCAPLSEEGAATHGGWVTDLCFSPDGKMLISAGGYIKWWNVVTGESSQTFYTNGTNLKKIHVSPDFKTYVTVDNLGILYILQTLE

[2] = target: T2, Endoribonuclease toxin MazF (Escherichia coli K-12, UniProt P0AE70); test: activation of MazEF endoribonuclease cleavage – biochemical, fluorescence, single-stranded RNA substrate, uHTS hits, dose response (AID 588481); assay type: functional
T2 sequence (P0AE70 whole entry): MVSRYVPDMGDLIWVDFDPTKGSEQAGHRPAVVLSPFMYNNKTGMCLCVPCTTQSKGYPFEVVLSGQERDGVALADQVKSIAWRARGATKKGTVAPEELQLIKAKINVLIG

[3] = target: T2, Endoribonuclease toxin MazF; test: substrate-only fluorescence increase artefacts – biochemical, single-stranded RNase substrate, counter-screen for MazEF activator project, dose response (AID 588502); assay type: functional
[4] = system: P388/ADR; test: cells; assay type: functional; conditions: Mus musculus
[5] = system: SN12K1; test: cells; assay type: functional; conditions: Homo sapiens
[6] = system: P388; test: cells; assay type: functional; conditions: Mus musculus
[7] = target: T3, Sentrin-specific protease 8 (Homo sapiens, UniProt Q96LD8); assay type: functional
T3 sequence (Q96LD8 whole entry): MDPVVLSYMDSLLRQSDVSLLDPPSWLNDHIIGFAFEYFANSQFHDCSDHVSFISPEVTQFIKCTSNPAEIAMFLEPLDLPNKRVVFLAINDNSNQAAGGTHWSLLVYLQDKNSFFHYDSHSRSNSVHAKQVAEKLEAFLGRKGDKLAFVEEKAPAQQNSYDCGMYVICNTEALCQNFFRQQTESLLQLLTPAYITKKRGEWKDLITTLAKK

[8] = target: T3, Sentrin-specific protease 8; assay type: functional; remark: listed apart in the source
[9] = target: T4, Caspase-6 (Homo sapiens, UniProt P55212); test: inhibition of CASP6 peptide cleavage – biochemical, VEID-R110 fluorescence, cherry-pick, dose response (AID 720632)
T4 sequence (P55212 whole entry): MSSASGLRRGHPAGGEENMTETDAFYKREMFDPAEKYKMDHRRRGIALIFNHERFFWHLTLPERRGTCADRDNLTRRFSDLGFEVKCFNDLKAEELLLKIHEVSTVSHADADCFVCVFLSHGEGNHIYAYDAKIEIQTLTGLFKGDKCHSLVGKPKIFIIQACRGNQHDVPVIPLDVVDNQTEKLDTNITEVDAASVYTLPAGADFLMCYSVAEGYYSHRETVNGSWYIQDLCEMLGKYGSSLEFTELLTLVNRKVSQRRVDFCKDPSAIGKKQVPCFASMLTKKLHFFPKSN

[10] = system: H9c2; test: cells; assay type: functional, cell-based; conditions: Rattus norvegicus, H9c2, Myocardium;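 also: confirmatory concentration-response retest of ultra-high-throughput screening hits for modulation of myocardial damage; cell death induced by hydrogen peroxide oxidative stress; compound pretreatment for 60 min then peroxide exposure for 2 h; potency is for protecting the cells against peroxide damage rather than for killing them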
[11] = target: 26S proteasome non-ATPase regulatory subunit 14 (Homo sapiens, UniProt O00487); test: inhibition of proteasome subunit RPN11 – biochemical, fluorescence polarization, uHTS hits, confirmation (AID 602368); assay type: functional
[12] = target: 72 kDa type IV collagenase (Homo sapiens, UniProt P08253); test: Dose Response validation of uHTS RPN11 inhibitor hits using a MMP-2 Fluorescence assay.; assay type: functional
[13] = target: Prothrombin (Bos taurus, UniProt P00735); test: thrombin protease inhibitors – biochemical, fluorescence polarization, uHTS hits, dose response (AID 602369); assay type: functional
[14] = system: HEK293; test: EBV LMP1 TES2 canonical NF-kB signalling blockers – cell-based, HEK293, luciferase, cherry-pick, dose response (AID 588343); assay type: functional; conditions: Homo sapiens
[15] = target: T5, Latent membrane protein 1 (Human herpesvirus 4 (strain B95-8), UniProt P03230); test: LMP1 TES1 pathway selectivity over dsRED control – imaging, HEK293T, dual-color eGFP/dsRED, cherry-picks, selectivity assay for LMP1 NF-kB inhibitor project, dose response (AID 588398); assay type: functional, cell-based
T5 sequence (P03230 whole entry): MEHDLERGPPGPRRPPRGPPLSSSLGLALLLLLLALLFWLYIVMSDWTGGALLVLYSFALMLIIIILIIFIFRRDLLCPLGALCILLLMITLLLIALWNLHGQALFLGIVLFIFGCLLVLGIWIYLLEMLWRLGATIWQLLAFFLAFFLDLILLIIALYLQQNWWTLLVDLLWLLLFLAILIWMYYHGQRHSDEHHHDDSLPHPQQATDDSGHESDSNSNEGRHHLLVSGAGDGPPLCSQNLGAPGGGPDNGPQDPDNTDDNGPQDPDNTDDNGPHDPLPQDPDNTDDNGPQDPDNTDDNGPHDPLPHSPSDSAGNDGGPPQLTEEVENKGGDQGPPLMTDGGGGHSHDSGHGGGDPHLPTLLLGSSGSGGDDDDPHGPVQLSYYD

[16] = target: T6, Probable nicotinate-nucleotide adenylyltransferase (Staphylococcus aureus (strain N315), UniProt P65502); assay type: functional, Staphylococcus aureus subsp. aureus N315;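 as to IC50 Mean: confirmatory dose-response retesting of NadD inhibitor hits first found in an ultra-high-throughput screen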
[17] = target: T6, Probable nicotinate-nucleotide adenylyltransferase; assay type: functional, Staphylococcus aureus subsp. aureus N315; conditions: read-out: IC50_Mean

T6 sequence (P65502 whole entry): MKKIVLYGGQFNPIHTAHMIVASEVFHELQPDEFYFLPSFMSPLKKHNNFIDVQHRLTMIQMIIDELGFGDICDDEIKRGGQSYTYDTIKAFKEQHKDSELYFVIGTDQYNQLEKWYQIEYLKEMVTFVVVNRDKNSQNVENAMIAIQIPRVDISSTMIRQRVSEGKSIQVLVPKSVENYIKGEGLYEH
72 kDa type IV collagenase, sequence (P08253 whole entry): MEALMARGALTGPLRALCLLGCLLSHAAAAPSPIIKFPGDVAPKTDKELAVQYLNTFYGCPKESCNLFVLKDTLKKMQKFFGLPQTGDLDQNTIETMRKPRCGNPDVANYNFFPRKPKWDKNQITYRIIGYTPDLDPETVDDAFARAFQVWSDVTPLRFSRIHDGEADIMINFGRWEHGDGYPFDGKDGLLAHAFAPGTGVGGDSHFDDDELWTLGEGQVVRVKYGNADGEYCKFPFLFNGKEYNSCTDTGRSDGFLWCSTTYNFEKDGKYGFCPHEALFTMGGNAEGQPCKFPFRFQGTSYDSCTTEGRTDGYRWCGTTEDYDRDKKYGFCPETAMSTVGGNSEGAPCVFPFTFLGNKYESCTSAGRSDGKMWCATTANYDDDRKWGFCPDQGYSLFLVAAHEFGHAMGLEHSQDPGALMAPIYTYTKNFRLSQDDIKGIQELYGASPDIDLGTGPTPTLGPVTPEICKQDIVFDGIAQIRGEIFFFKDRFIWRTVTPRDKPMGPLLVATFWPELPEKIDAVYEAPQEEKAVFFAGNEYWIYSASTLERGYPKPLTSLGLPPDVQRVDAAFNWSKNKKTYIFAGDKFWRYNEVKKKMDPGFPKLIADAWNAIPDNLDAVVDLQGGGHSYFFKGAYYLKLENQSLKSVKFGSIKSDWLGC
26S proteasome non-ATPase regulatory subunit 14, sequence (O00487 whole entry): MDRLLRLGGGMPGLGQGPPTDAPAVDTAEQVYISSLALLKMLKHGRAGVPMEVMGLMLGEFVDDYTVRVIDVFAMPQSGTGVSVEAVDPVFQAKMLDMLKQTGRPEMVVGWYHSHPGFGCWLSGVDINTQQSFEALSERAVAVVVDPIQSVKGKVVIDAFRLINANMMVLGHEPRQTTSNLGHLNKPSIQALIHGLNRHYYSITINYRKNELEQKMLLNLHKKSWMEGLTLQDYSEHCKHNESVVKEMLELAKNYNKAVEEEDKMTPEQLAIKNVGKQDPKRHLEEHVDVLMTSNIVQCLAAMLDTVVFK

CC(C)N(Cc1cc2ccccc2nc1O)C(=O)C1CCCCC1
IC50 [1]: 13.6 µM (active)

N#C/C(=C\c1cn(-c2ccccc2)nc1-c1cc2ccccc2o1)c1nc2ccccc2[nH]1
EC50 [2]: > 99 µM (inactive) | EC50 [3]: 7.03 µM (active)

Cn1c(=O)[nH]c2nncnc2c1=O
IC50 [1]: 15.4 µM (active) | GI50 [4]: 213 µM (inactive) | GI50 [5]: 65.8 µM (inactive) | GI50 [6]: 25.8 µM (inactive) | IC50 [7]: 1.62 µM (active) | IC50 [8]: 2.08 µM (active) | AC50 [9]: 7.06 µM (active)

COc1ccc(-c2ccc3c(c2)S(=O)(=O)c2cccc(C(=O)N4CCN(c5c(Cl)cncc5Cl)CC4)c2C3=O)cc1OC
IC50 [10]: > 79 µM (inactive) | IC50 [11]: 21.7 µM (active) | IC50 [12]: > 100 µM (inactive) | IC50 [13]: 29.3 µM (active)

CCn1c2ccccc2c2cc(/C=N/n3c(S)nnc3-c3cc(C)[nH]n3)ccc21
AC50 [14]: 8.12 µM (active) | AC50 [15]: 0.288 µM (active) | IC50 [16]: 8.02 µM (active) | IC50 [17]: 33.7 µM (active)
